# ChEMBL document CHEMBL1201861, “Genomics of Drug Sensitity in Cancer screening data, Wellcome Trust Sanger Institute”
# Key:
# NCI-H2141 = assay: cells; type: functional, cell-based; settings: Homo sapiens;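 also: growth inhibition of human NCI-H2141 cells, read out with a cell viability assay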
# Description: SANGER: Inhibition of human NCI-H2141 cell growth in a cell viability assay.
# SK-HEP1 = assay: cells; type: functional, cell-based, SK-HEP-1; settings: Homo sapiens;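 also: cell viability readout used to quantify reduction in proliferation of human SK-HEP-1 cells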
# Description: SANGER: Inhibition of human SK-HEP-1 cell growth in a cell viability assay.
# CAL-33 = assay: cells; type: functional, cell-based; settings: Homo sapiens;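 also: growth inhibition of CAL-33 cells, read out with a cell viability assay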
# Description: SANGER: Inhibition of human CAL-33 cell growth in a cell viability assay.
# P31-FUJ = assay: cells; type: functional, cell-based; settings: Homo sapiens;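 also: growth inhibition of P31-FUJ cells, read out with a viability assay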
# Description: SANGER: Inhibition of human P31-FUJ cell growth in a cell viability assay.
# HCC1419 = assay: cells; type: functional, cell-based; settings: Homo sapiens;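 also: growth inhibition of human HCC1419 cells, read out as cell viability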
# Description: SANGER: Inhibition of human HCC1419 cell growth in a cell viability assay.
# NCI-H650 = assay: cells; type: functional, cell-based; settings: Homo sapiens;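 also: growth inhibition of NCI-H650 cells, read out by a viability assay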
# Description: SANGER: Inhibition of human NCI-H650 cell growth in a cell viability assay.
# NCI-H187 = assay: cells; type: functional, cell-based; settings: Homo sapiens;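 also: growth inhibition of NCI-H187 cells, read out as cell viability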
# Description: SANGER: Inhibition of human NCI-H187 cell growth in a cell viability assay.
# NCI-H1882 = assay: cells; type: functional, cell-based; settings: Homo sapiens;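 also: growth inhibition of the cell line, determined with a viability assay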
# Description: SANGER: Inhibition of human NCI-H1882 cell growth in a cell viability assay.
# BL-41 = assay: cells; type: functional, cell-based; settings: Homo sapiens;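 also: growth inhibition of human BL-41 cells, read out with a cell viability assay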
# Description: SANGER: Inhibition of human BL-41 cell growth in a cell viability assay.
# DU-145 = assay: cells; type: functional, cell-based; settings: Homo sapiens
# Description: SANGER: Inhibition of human DU-145 cell growth in a cell viability assay.
# SK-MEL-30 = assay: cells; type: functional, cell-based; settings: Homo sapiens;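 also: growth inhibition of SK-MEL-30 cells, determined with a cell viability assay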
# Description: SANGER: Inhibition of human SK-MEL-30 cell growth in a cell viability assay.
# HN = assay: cells; type: functional, cell-based; settings: Homo sapiens
# Description: SANGER: Inhibition of human HN cell growth in a cell viability assay.
# G-401 = assay: cells; type: functional, cell-based; settings: Homo sapiens
# Description: SANGER: Inhibition of human G-401 cell growth in a cell viability assay.
# RT-112 = assay: cells; type: functional, cell-based; settings: Homo sapiens
# Description: SANGER: Inhibition of human RT-112 cell growth in a cell viability assay.
# NCI-H2405 = assay: cells; type: functional, cell-based; settings: Homo sapiens;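 also: growth inhibition of the human cell line, read out with a cell viability assay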
# Description: SANGER: Inhibition of human NCI-H2405 cell growth in a cell viability assay.
# HOP-92 = assay: cells; type: functional, cell-based; settings: Homo sapiens;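 also: cell viability readout, with IC50 reflecting inhibition of HOP-92 cell growth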
# Description: SANGER: Inhibition of human HOP-92 cell growth in a cell viability assay.
# HT55 = assay: cells; type: functional, cell-based; settings: Homo sapiens;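 also: cell viability readout measuring growth inhibition of human HT55 cells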
# Description: SANGER: Inhibition of human HT55 cell growth in a cell viability assay.
# SNU-387 = assay: cells; type: functional, cell-based; settings: Homo sapiens
# Description: SANGER: Inhibition of human SNU-387 cell growth in a cell viability assay.
# CPC-N = assay: cells; type: functional, cell-based; settings: Homo sapiens;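 also: growth inhibition of CPC-N cells, with a cell viability assay as the readout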
# Description: SANGER: Inhibition of human CPC-N cell growth in a cell viability assay.
# RD = assay: cells; type: functional, cell-based; settings: Homo sapiens
# Description: SANGER: Inhibition of human RD cell growth in a cell viability assay.
# NCI-H1734 = assay: cells; type: functional, cell-based; settings: Homo sapiens;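 also: growth inhibition of human NCI-H1734 cells, read out with a cell viability assay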
# Description: SANGER: Inhibition of human NCI-H1734 cell growth in a cell viability assay.
# EVSA-T = assay: cells; type: functional, cell-based; settings: Homo sapiens;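 also: growth inhibition of EVSA-T cells, read out with a cell viability assay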
# Description: SANGER: Inhibition of human EVSA-T cell growth in a cell viability assay.
# GMS-10 = assay: cells; type: functional, cell-based; settings: Homo sapiens;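 also: growth inhibition of GMS-10 cells, read out as cell viability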
# Description: SANGER: Inhibition of human GMS-10 cell growth in a cell viability assay.
# TCC-SUP = assay: cells; type: functional, cell-based; settings: Homo sapiens;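 also: growth inhibition of TCC-SUP cells, read out with a cell viability assay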
# Description: SANGER: Inhibition of human TCCSUP cell growth in a cell viability assay.
# KOSC-2 = assay: cells; type: functional, cell-based; settings: Homo sapiens;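 also: growth inhibition of KOSC-2 cells, read out by a cell viability assay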
# Description: SANGER: Inhibition of human KOSC-2 cell growth in a cell viability assay.
# MDA-MB-468 = assay: cells; type: functional, cell-based; settings: Homo sapiens
# Description: SANGER: Inhibition of human MDA-MB-468 cell growth in a cell viability assay.
# NCI-H1792 = assay: cells; type: functional, cell-based; settings: Homo sapiens;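 also: growth inhibition of human NCI-H1792 cells, read out as cell viability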
# Description: SANGER: Inhibition of human NCI-H1792 cell growth in a cell viability assay.
# SW1417 = assay: cells; type: functional, cell-based; settings: Homo sapiens;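 also: growth inhibition of human SW1417 cells, read out with a cell viability assay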
# Description: SANGER: Inhibition of human SW1417 cell growth in a cell viability assay.
# SW1573 = assay: cells; type: functional, cell-based; settings: Homo sapiens;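 also: growth inhibition of SW1573 cells, read out with a cell viability assay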
# Description: SANGER: Inhibition of human SW1573 cell growth in a cell viability assay.
# SU-DHL-1 = assay: SANGER: Inhibition of human SU-DHL-1 cell growth in a cell viability assay.; type: functional, cell-based
# ARH-77 = assay: cells; type: functional, cell-based; settings: Homo sapiens;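 also: growth inhibition of ARH-77 cells, read out by a cell viability assay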
# Description: SANGER: Inhibition of human ARH-77 cell growth in a cell viability assay.
# C3A = assay: cells; type: functional, cell-based; settings: Homo sapiens;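 also: growth inhibition of C3A human cells, quantified with a cell viability readout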
# Description: SANGER: Inhibition of human C3A cell growth in a cell viability assay.
# HTC-C3 = assay: cells; type: functional, cell-based; settings: Homo sapiens;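 also: inhibition of cell growth, read out with a cell viability assay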
# Description: SANGER: Inhibition of human HTC-C3 cell growth in a cell viability assay.
# MDA-MB-134-VI = assay: cells; type: functional, cell-based; settings: Homo sapiens
# Description: SANGER: Inhibition of human MDA-MB-134-VI cell growth in a cell viability assay.
# C-33-A = assay: cells; type: functional, cell-based; settings: Homo sapiens;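 also: cell viability assay measuring growth inhibition of C-33-A cells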
# Description: SANGER: Inhibition of human C-33-A cell growth in a cell viability assay.
# NCI-H1755 = assay: cells; type: functional, cell-based; settings: Homo sapiens;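 also: cell viability readout used to measure growth inhibition of NCI-H1755 cells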
# Description: SANGER: Inhibition of human NCI-H1755 cell growth in a cell viability assay.
# HuCCT-1 = assay: cells; type: functional, cell-based, HuCCT1; settings: Homo sapiens;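 also: growth inhibition of HuCCT-1 cells, read out by a cell viability assay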
# Description: SANGER: Inhibition of human HuCCT1 cell growth in a cell viability assay.
# SW1088 = assay: cells; type: functional, cell-based; settings: Homo sapiens;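 also: growth inhibition of human SW1088 cells, read out by a cell viability assay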
# Description: SANGER: Inhibition of human SW1088 cell growth in a cell viability assay.
# DOK = assay: cells; type: functional, cell-based; settings: Homo sapiens;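 also: cell viability assay read-out, values reflect inhibition of cell growth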
# Description: SANGER: Inhibition of human DOK cell growth in a cell viability assay.
# IGR-1 = assay: cells; type: functional, cell-based; settings: Homo sapiens;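 also: growth inhibition of human IGR-1 cells, read out with a cell viability assay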
# Description: SANGER: Inhibition of human IGR-1 cell growth in a cell viability assay.
# NCI-H1417 = assay: cells; type: functional, cell-based; settings: Homo sapiens;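 also: human NCI-H1417 cells, growth inhibition determined with a cell viability readout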
# Description: SANGER: Inhibition of human NCI-H1417 cell growth in a cell viability assay.
# MRK-nu-1 = assay: cells; type: functional, cell-based; settings: Homo sapiens;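 also: cell viability assay measuring growth suppression of human MRK-nu-1 cells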
# Description: SANGER: Inhibition of human MRK-nu-1 cell growth in a cell viability assay.
# MDA-MB-415 = assay: cells; type: functional, cell-based; settings: Homo sapiens
# MIA PaCa-2 = assay: cells; type: functional, cell-based; settings: Homo sapiens;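 also: growth inhibition of MIA PaCa-2 cells, read out with a cell viability assay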
# Description: SANGER: Inhibition of human MIA-PaCa-2 cell growth in a cell viability assay.
# HCC2157 = assay: cells; type: functional, cell-based; settings: Homo sapiens;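 also: growth inhibition of the cancer cell line, read out as cell viability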
# Description: SANGER: Inhibition of human HCC2157 cell growth in a cell viability assay.
# TALL-1 = assay: cells; type: functional, cell-based; settings: Homo sapiens;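 also: growth inhibition of cultured human TALL-1 cells, read out by a cell viability assay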
# Description: SANGER: Inhibition of human TALL-1 cell growth in a cell viability assay.
# SW-620 = assay: cells; type: functional, cell-based; settings: Homo sapiens;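 also: growth inhibition of human SW-620 cells, measured by a cell viability assay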
# Description: SANGER: Inhibition of human SW620 cell growth in a cell viability assay.
# NCI-H596 = assay: cells; type: functional, cell-based; settings: Homo sapiens;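 also: growth inhibition of NCI-H596 cells, read out with a cell viability assay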
# Description: SANGER: Inhibition of human NCI-H596 cell growth in a cell viability assay.
# RL95-2 = assay: cells; type: functional, cell-based; settings: Homo sapiens;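 also: RL95-2 growth inhibition determined through a cell viability readout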
# Description: SANGER: Inhibition of human RL95-2 cell growth in a cell viability assay.
# NCI-H1618 = assay: cells; type: functional, cell-based; settings: Homo sapiens;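 also: growth inhibition of human NCI-H1618 cells, measured by a cell viability assay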
# Description: SANGER: Inhibition of human NCI-H1618 cell growth in a cell viability assay.
# MEL-JUSO = assay: cells; type: functional, cell-based; settings: Homo sapiens;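 also: growth inhibition of human MEL-JUSO cells, read out with a cell viability assay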
# Description: SANGER: Inhibition of human MEL-JUSO cell growth in a cell viability assay.
# SIG-M5 = assay: cells; type: functional, cell-based; settings: Homo sapiens;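 also: cell viability assay read-out, measuring how strongly growth of cultured human SIG-M5 cells is inhibited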
# Description: SANGER: Inhibition of human SIG-M5 cell growth in a cell viability assay.
# CAL-54 = assay: cells; type: functional, cell-based; settings: Homo sapiens;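 also: growth inhibition of CAL-54 cells, read out by a viability measurement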
# Description: SANGER: Inhibition of human CAL-54 cell growth in a cell viability assay.
# J82 = assay: cells; type: functional, cell-based; settings: Homo sapiens;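 also: growth inhibition of J82 cells, read out with a cell viability assay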
# Description: SANGER: Inhibition of human J82 cell growth in a cell viability assay.
# CAL-62 = assay: cells; type: functional, cell-based; settings: Homo sapiens;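 also: growth inhibition of CAL-62 cells, read out with a cell viability assay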
# Description: SANGER: Inhibition of human CAL-62 cell growth in a cell viability assay.
# HT-29 = assay: cells; type: functional, cell-based; settings: Homo sapiens;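 also: growth inhibition of human HT-29 cells, read out by a cell viability assay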
# Description: SANGER: Inhibition of human HT-29 cell growth in a cell viability assay.
# NCI-H2030 = assay: cells; type: functional, cell-based; settings: Homo sapiens;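 also: growth inhibition of human NCI-H2030 cells, read out by a cell viability assay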
# Description: SANGER: Inhibition of human NCI-H2030 cell growth in a cell viability assay.
# ME-180 = assay: cells; type: functional, cell-based; settings: Homo sapiens;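 also: cell viability assay measuring growth inhibition of ME-180 cells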
# Description: SANGER: Inhibition of human ME-180 cell growth in a cell viability assay.
# A 172 = assay: cells; type: functional, cell-based; settings: Homo sapiens;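 also: growth inhibition of A172 cells, measured with a cell viability readout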
# Description: SANGER: Inhibition of human A172 cell growth in a cell viability assay.
# NCI-H1522 = assay: cells; type: functional, cell-based; settings: Homo sapiens;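 also: growth inhibition of NCI-H1522 cells, read out with a cell viability assay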
# Description: SANGER: Inhibition of human NCI-H1522 cell growth in a cell viability assay.
# CAKI-1 = assay: cells; type: functional, cell-based; settings: Homo sapiens
# Description: SANGER: Inhibition of human CAKI-1 cell growth in a cell viability assay.
# SNU-423 = assay: cells; type: functional, cell-based; settings: Homo sapiens
# Description: SANGER: Inhibition of human SNU-423 cell growth in a cell viability assay.
compound,measurement,setting,value
CC(C)=CC[C@@H](O)C1=CC(=O)c2c(O)ccc(O)c2C1=O [SHIKONIN],IC50,NCI-H2141,1710 nM
same,IC50,SK-HEP1,548 nM
same,IC50,CAL-33,2000 nM
same,IC50,P31-FUJ,2070 nM
same,IC50,HCC1419,1690 nM
same,IC50,NCI-H650,665 nM
same,IC50,NCI-H187,2360 nM
same,IC50,NCI-H1882,576 nM
same,IC50,BL-41,483 nM
same,IC50,DU-145,193 nM
same,IC50,SK-MEL-30,695 nM
same,IC50,HN,1370 nM
same,IC50,G-401,235 nM
same,IC50,RT-112,70.4 nM
same,IC50,NCI-H2405,675 nM
same,IC50,HOP-92,2010 nM
same,IC50,HT55,1690 nM
same,IC50,SNU-387,1070 nM
same,IC50,CPC-N,> 16000 nM
same,IC50,RD,449 nM
same,IC50,NCI-H1734,6900 nM
same,IC50,EVSA-T,410 nM
same,IC50,GMS-10,11500 nM
same,IC50,TCC-SUP,554 nM
same,IC50,KOSC-2,1490 nM
same,IC50,MDA-MB-468,967 nM
same,IC50,NCI-H1792,> 16000 nM
same,IC50,SW1417,826 nM
same,IC50,SW1573,372 nM
same,IC50,SU-DHL-1,499 nM
same,IC50,ARH-77,873 nM
same,IC50,C3A,657 nM
same,IC50,HTC-C3,542 nM
same,IC50,MDA-MB-134-VI,709 nM
same,IC50,C-33-A,913 nM
same,IC50,NCI-H1755,> 16000 nM
same,IC50,HuCCT-1,483 nM
same,IC50,SW1088,700 nM
same,IC50,DOK,5190 nM
same,IC50,IGR-1,154 nM
same,IC50,NCI-H1417,816 nM
same,IC50,MRK-nu-1,102 nM
same,IC50,MDA-MB-415,2280 nM
same,IC50,MIA PaCa-2,276 nM
same,IC50,HCC2157,338 nM
same,IC50,TALL-1,> 16000 nM
same,IC50,SW-620,359 nM
same,IC50,NCI-H596,818 nM
same,IC50,RL95-2,720 nM
same,IC50,NCI-H1618,2020 nM
same,IC50,MEL-JUSO,540 nM
same,IC50,SIG-M5,170 nM
same,IC50,CAL-54,1420 nM
same,IC50,J82,143 nM
same,IC50,CAL-62,1280 nM
same,IC50,HT-29,645 nM
same,IC50,NCI-H2030,563 nM
same,IC50,ME-180,279 nM
same,IC50,A 172,470 nM
same,IC50,NCI-H1522,519 nM
same,IC50,CAKI-1,894 nM
same,IC50,SNU-423,163 nM
